Reference: ChEMBL document CHEMBL1142453, “Imidazoles: SAR and development of a potent class of cyclin-dependent kinase inhibitors” (Bioorg Med Chem Lett, 2008)
In brackets after ≈: the same amount, converted by molar mass.

Legend:
[1] = target: Cyclin-dependent kinase 2 (Homo sapiens, UniProt P24941); experiment: Inhibition of CDK2
LoVo = experiment: Antiproliferative activity against human LoVo cells assessed as BrdU incorporation after 48 hrs; type: functional, cell-based
MCF7 = experiment: Antiproliferative activity against human MCF7 cells assessed as BrdU incorporation after 48 hrs; type: functional, cell-based; conditions: MCF7, 48 h
[2] = target: Cyclin-dependent kinase 4 (Homo sapiens, UniProt P11802); experiment: Inhibition of CDK4
[3] = Lipophilicity, log D at pH 7.4; conditions: buffer
[4] = Fraction unbound in rat serum; type: ADME, cell-free
physchem = conditions: buffer, pH 7.4
G1/S-specific cyclin-E1 = G1/S-specific cyclin-E1 (Homo sapiens, UniProt P24864); experiment: Inhibition of Cyclin E/CDK2
[5] = target: G2/mitotic-specific cyclin-B1 (Homo sapiens, UniProt P14635); experiment: Inhibition of Cyclin B1/CDK1
G1/S-specific cyclin-D3 = target: T1, G1/S-specific cyclin-D3 (Homo sapiens, UniProt P30281); experiment: Inhibition of Cyclin D3/CDK6
T1 sequence (P30281 whole entry): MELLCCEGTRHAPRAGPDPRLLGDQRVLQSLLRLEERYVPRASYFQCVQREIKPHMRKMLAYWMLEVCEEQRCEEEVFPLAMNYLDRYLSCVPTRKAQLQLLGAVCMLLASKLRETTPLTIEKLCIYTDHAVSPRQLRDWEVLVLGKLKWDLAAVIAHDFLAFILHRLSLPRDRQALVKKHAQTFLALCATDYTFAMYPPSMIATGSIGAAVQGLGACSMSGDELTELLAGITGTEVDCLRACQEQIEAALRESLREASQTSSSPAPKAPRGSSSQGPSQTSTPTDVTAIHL

[6] = Volume of distribution at steady state in mouse at 5.5 mg/kg, iv; type: ADME, organism-based; parameters: dose 5.5 mg/kg, route intravenous; conditions: in vivo, read-out: Vdss
[7] = Clearance in mouse at 5.5 mg/kg, iv; type: ADME, organism-based; parameters: dose 5.5 mg/kg, route intravenous; conditions: in vivo
[8] = AUC (0 to t) in mouse at 10 mg/kg, po; type: ADME, organism-based; parameters: dose 10 mg/kg, route oral; conditions: plasma
[9] = Cmax in mouse at 10 mg/kg, po; type: ADME, organism-based; parameters: dose 10 mg/kg, route oral; conditions: in vivo
[10] = Tmax in mouse at 10 mg/kg, po; type: ADME, organism-based; parameters: dose 10 mg/kg, route oral; conditions: in vivo
[11] = Oral bioavailability in mouse at 10 mg/kg; type: ADME, organism-based; conditions: in vivo

Chain of Cyclin-dependent kinase 4 (P11802 whole entry): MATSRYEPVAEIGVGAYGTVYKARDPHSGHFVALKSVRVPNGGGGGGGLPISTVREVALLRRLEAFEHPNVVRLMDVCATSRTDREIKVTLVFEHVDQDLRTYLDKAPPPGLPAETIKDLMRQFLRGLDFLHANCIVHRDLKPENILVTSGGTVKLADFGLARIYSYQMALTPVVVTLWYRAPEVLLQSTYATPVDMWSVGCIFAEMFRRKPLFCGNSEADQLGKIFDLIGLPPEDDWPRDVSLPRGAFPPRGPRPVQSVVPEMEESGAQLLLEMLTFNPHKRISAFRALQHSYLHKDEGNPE
Chain of G2/mitotic-specific cyclin-B1 (P14635 whole entry): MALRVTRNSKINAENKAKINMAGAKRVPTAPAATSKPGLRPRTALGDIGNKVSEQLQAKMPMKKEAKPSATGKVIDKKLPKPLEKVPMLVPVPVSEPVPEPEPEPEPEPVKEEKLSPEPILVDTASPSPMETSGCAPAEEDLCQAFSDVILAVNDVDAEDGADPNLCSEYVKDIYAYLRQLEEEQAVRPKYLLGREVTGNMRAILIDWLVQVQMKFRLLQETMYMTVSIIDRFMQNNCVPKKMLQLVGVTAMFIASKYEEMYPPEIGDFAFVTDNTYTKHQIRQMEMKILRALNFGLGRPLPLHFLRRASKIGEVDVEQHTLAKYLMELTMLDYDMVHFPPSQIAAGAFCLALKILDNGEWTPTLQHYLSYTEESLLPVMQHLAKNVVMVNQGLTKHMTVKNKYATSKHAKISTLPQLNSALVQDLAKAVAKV
Chain of G1/S-specific cyclin-E1 (P24864 whole entry): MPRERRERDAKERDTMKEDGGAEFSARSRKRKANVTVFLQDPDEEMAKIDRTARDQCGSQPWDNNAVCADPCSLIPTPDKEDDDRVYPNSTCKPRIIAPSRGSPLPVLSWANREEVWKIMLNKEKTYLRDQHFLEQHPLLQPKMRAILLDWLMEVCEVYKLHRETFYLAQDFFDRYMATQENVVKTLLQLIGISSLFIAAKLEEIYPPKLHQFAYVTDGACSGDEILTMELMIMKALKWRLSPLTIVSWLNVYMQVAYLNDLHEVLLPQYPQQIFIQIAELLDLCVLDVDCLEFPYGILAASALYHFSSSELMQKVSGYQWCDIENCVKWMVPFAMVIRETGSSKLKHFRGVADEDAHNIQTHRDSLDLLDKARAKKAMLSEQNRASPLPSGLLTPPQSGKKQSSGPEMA

| Structure (SMILES) | IC50 [1] [nM] | IC50 (LoVo) [nM] | IC50 (MCF7) [nM] | IC50 [2] [nM] | other results |
| --- | --- | --- | --- | --- | --- |
| COCCNS(=O)(=O)c1ccc(Nc2nccc(-c3cnc(C)n3C3CCCC3)n2)cc1 | < 3 | 610 | – | – | – |
| Cc1ncc(-c2ccnc(Nc3ccc(S(=O)(=O)CCCN(C)C)cc3)n2)n1C | 295 | – | – | – | – |
| Cc1ncc(-c2ccnc(Nc3ccc(S(=O)(=O)NCCN(C)C)cc3)n2)n1C | 25 | – | 490 | – | – |
| Cc1ncc(-c2ccnc(Nc3ccc(S(=O)(=O)Cc4ccccc4)cc3)n2)n1C(C)C | 19 | 1500 | – | 1500 | – |
| Cc1ncc(-c2ccnc(Nc3ccc(S(=O)(=O)CCCN4CCOCC4)cc3)n2)n1C(C)C | 33 | 1200 | – | 210 | – |
| COCCNS(=O)(=O)c1ccc(Nc2nccc(-c3cnc(C)n3C(C)C)n2)cc1 | – | 310 | – | 200 | – |
| COCCNS(=O)(=O)c1ccc(Nc2nccc(-c3cnc4ccccn34)n2)cc1 | < 12 | – | 400 | – | – |
| CN(C)CCNS(=O)(=O)c1ccc(Nc2nccc(-c3cnc4cccnn34)n2)cc1 | – | – | 260 | – | – |
| CN(C)CCNS(=O)(=O)c1ccc(Nc2nccc(-c3cnc4ccccn34)n2)cc1 | – | – | – | – | logD [3]: 2.7; fraction unbound [4]: 0.03; solubility (physchem): 31 µM (≈ 13.6 µg/mL) |
| CNS(=O)(=O)c1ccc(Nc2nccc(-c3cnc4cccnn34)n2)cc1 | < 3 | – | 560 | – | – |
| Cc1ncc(-c2ccnc(Nc3ccc(S(C)(=O)=O)cc3)n2)n1C(C)C [AZD-5438] | – | 630 | – | – | IC50 (G1/S-specific cyclin-E1): 6 nM; IC50 [5]: 16 nM; IC50 (G1/S-specific cyclin-D3): 21 nM; logD [3]: 2.4; fraction unbound [4]: 0.087; Vd [6]: 1.01 L/kg; clearance [7]: 21.8 mL/min/kg; AUC(0-t) [8]: 18.7 µM·h; Cmax [9]: 6.4 µM; Tmax [10]: 19.8 min; bioavailability [11]: 91%; solubility (physchem): 218 µM (≈ 81 µg/mL) |
| NS(=O)(=O)c1ccc(Nc2nccc(-c3cnc4ccccn34)n2)cc1 | 2 | – | 260 | – | logD [3]: 2.7; fraction unbound [4]: 0.001; solubility (physchem): 6.5 µM (≈ 2.38 µg/mL) |
| COCCNS(=O)(=O)c1ccc(Nc2nccc(-c3c(C)nc(C)n3C)n2)cc1 | 68 | 9200 | – | > 8600 | – |
| COCCNS(=O)(=O)c1ccc(Nc2nccc(-c3cnc(C)n3C)n2)cc1 | 8 | 4000 | 620 | 5600 | – |
| Cc1ncc(-c2ccnc(Nc3ccc(S(=O)(=O)CCCN(C)C)cc3)n2)n1C(C)C | 36 | 890 | – | 140 | logD [3]: 1.3; fraction unbound [4]: 0.32; solubility (physchem): > 6800 µM |
| COCCNS(=O)(=O)c1ccc(Nc2nccc(-c3cnc4cccnn34)n2)cc1 | – | – | – | – | fraction unbound [4]: 0.008 |
| CN(C)CCCNS(=O)(=O)c1ccc(Nc2nccc(-c3cnc4cccnn34)n2)cc1 | – | – | – | – | logD [3]: 1.4; fraction unbound [4]: 0.148; solubility (physchem): 160 µM (≈ 72.4 µg/mL) |
| COCCNS(=O)(=O)c1ccc(Nc2nccc(-c3cnc(C)n3CC(C)C)n2)cc1 | 15 | 1800 | – | – | – |
| CCn1c(-c2ccnc(Nc3ccc(S(C)(=O)=O)cc3)n2)cnc1C | 23 | – | – | – | – |
| CNS(=O)(=O)c1ccc(Nc2nccc(-c3cnc(C)n3C)n2)cc1 | < 3 | – | 500 | – | – |
| Cc1ncc(-c2ccnc(Nc3ccc(S(N)(=O)=O)cc3)n2)n1C | 11 | – | 870 | – | – |
| CCCS(=O)(=O)c1ccc(Nc2nccc(-c3cnc(C)n3C(C)C)n2)cc1 | 8 | 1800 | – | – | – |
| CCn1c(-c2ccnc(Nc3ccc(S(=O)(=O)NCCOC)cc3)n2)cnc1C | 4 | 1500 | – | 1300 | fraction unbound [4]: 0.014 |
| COCCN(C)S(=O)(=O)c1ccc(Nc2nccc(-c3cnc(C)n3C)n2)cc1 | 400 | – | – | – | – |
| COCCS(=O)(=O)c1ccc(Nc2nccc(-c3cnc(C)n3C(C)C)n2)cc1 | 14 | 690 | – | 490 | – |
| Cc1ncc(-c2ccnc(Nc3ccc(S(=O)(=O)CC4CCCO4)cc3)n2)n1C(C)C (stereo not drawn) | 13 | 1200 | – | 530 | – |
| Cc1ncc(-c2ccnc(Nc3ccc(S(=O)(=O)NCCCOC(C)C)cc3)n2)n1C | 6 | – | 320 | – | – |
